Results as given in PMC7145288, “New Peptide-Based Pharmacophore Activates 20S Proteasome” (Molecules, 2020).

Tested on: 20S core proteasome α face pockets
Experiment: Competition with Rpt C-terminal tail peptides for α face pockets (ChT-L activity)
Format: biochemical, human
Details: Rpt peptide 1 μM added before TAT peptide; for Competition with Rpt tail peptides (in words, from radar plot scores): Rpt2 α3/α4, Rpt3 α1/α2, Rpt5 α5/α6, Rpt6 α2/α3 pocket, three to six experiments; for Enhanced (synergistic) activation with Rpt tail peptides (in words): Rpt5 or Rpt6 tails
Description: As mentioned above, the binding pockets on the α face accept “anchors” from natural protein ligands of the 20S core. […] The 10-residue Rpt-derived C-terminal “tail” peptides (“Rpt peptides”) can be used as competitors with the Rpt subunits or with small allosteric ligands. Importantly, the Rpt peptides interject between the subunits with their C-termini, whereas TAT peptides, according to the modeling, use their N-termini for this purpose. To test the specificity of interactions between TAT compounds and the α face, we performed competition experiments. The 20S core was challenged with selected TAT compounds after treatment with Rpt peptides. We selected peptides of Rpt2 ([…]), Rpt3 ([…]), Rpt5 ([…]) and Rpt6 […]) subunits, docking in α3/α4, α1/α2, α5/α6 and α2/α3 pockets, respectively. Tails of Rpt2, 3, and 5 display the canonical HbYX motif, whereas the LeuTrpLys C-terminus of Rpt6 may be considered “pseudo-HbYX”, with a bulky Trp replacing Tyr. Results of the competition experiments are presented as radar plots in Figure 7. […] This pocket also emerged as the major binding site for (1) and (8). However, these compounds likely weakly competed with the Rpt2 tail for binding to the α3/α4 pocket as well. The α3/α4 pocket seemed to be favored by (6). […] These complex patterns point at the importance of allosteric effects between the α face ligands, the gate and the catalytic chamber.
Figure 7 TAT1 derivatives competed with selected C-terminal tails of Rpt (Regulatory Particle ATPases) subunits for binding to specific α face pockets. The scores presented in radar plots were calculated as ((relative activation by the [x] and Rpt tail)-(theoretical sum of activation by [x] and Rpt tail))/(theoretical sum of activation by [x] and Rpt tail), where [x] represent any TAT peptide. […] The positive scores for combinations of selected compounds with Rpt5 or Rpt6 tails indicated a presumed synergy in activation of the core. Average scores derived from three to six experiments are presented. The competition effects were statistically significant (at least p < 0.05) for Rpt3 peptide and (1) and (8), as well as for Rpt2 peptide and (6).
Human housekeeping core (20S) proteasome purified from erythrocytes was purchased from Boston Biochem, Inc. (Cambridge, MA) or from Enzo Life Sciences, Inc. (Farmingdale, NY). Multiple batches of the proteasomes were used and performed reproducibly. The stock proteasome was diluted to 0.2 mg/mL working solution in “dilution buffer” (50 mM Tris/HCl, pH 8, 20% glycerol). The following model peptide substrates, all releasing fluorescent 7-amino-4-methylcoumarin (AMC) reporter group after cleavage, were used: succinyl-LeuLeuValTyr-AMC (for the ChT-L peptidase; SucLLVY-AMC; Bachem Bioscience Inc., Philadelphia, PA), butoxycarbonyl-LeuArgArg-AMC (T-L; Bachem Bioscience Inc., Philadelphia, PA) and carbobenzoxy- LeuLeuGlu-AMC (PGPH; Enzo Life Sciences Inc., Farmingdale, NY). The substrates were used at concentration of 50 μM (ChT-L) or 100 μM (T-L, PGPH). Free AMC (Sigma-Aldrich, St. Louis, MO) was used as the standard. The C-terminal peptides derived from Rpt2, Rpt3, Rpt5 and Rpt6 were synthesized (standard solid-phase peptide chemistry) and purified to at least 98% purity by GenScript (Piscataway, NJ). The TAT peptides, Rpt peptides (except Rpt6) and the peptide substrates were dissolved in anhydrous dimethylsulfoxide (DMSO; Sigma-Aldrich, St. Louis, MO) and such stock solutions were stored at −20 °C. The total concentration of DMSO in final reaction mixtures never exceeded 3% (vol/vol). The Trp (tryptophan) -containing Rpt6 peptide was dissolved in ultrapure water and stored at −20 °C, protected from light. […]

SMILES | Competition with Rpt tail peptides (in words, from radar plot scores) | Enhanced (synergistic) activation with Rpt tail peptides (in words)
NCCCC[C@H](NC(=O)[C@H](CCCCN)NC(=O)[C@H](CCCCN)NC(=O)c1cc(NC(=O)[C@H](CCCCN)NC(=O)[C@H](CCCCN)NC(=O)[C@@H](N)CCCCN)cc(NC(=O)[C@H](CCCCN)NC(=O)[C@H](CCCCN)NC(=O)[C@@H](N)CCCCN)c1)C(=O)O [(8)] | added a weakly negative score for the Rpt2 tail to the presumed major competitor Rpt3 | enhanced activation in the presence of one of Rpt tails, namely Rpt5 or Rpt6
N=C(N)NCCC[C@H](NC(=O)CN)C(=O)N[C@@H](CCCCN)C(=O)N[C@@H](CCCCN)C(=O)N[C@@H](CCCNC(=N)N)C(=O)N[C@@H](CCCNC(=N)N)C(=O)N[C@@H](CCC(N)=O)C(=O)N1Cc2ccccc2C[C@H]1C(=O)N1[C@@H](C(=O)N[C@@H](CCCNC(=N)N)C(=O)N2CCC[C@H]2C(=O)N[C@@H](CO)C(=O)O)C[C@H]2CCCC[C@H]21 [(5)] | competed fairly specifically with Rpt3 tail | enhanced activation in the presence of one of Rpt tails, namely Rpt5 or Rpt6
